These are literature values, as cited in publication PMC9604775, “Bioactive Peptides from Skipjack Tuna Cardiac Arterial Bulbs: Preparation, Identification, Antioxidant Activity, and Stability against Thermal, pH, and Simulated Gastrointestinal Digestion Treatments” (Marine Drugs, 2022).

Common to all, as to conditions: literature value; cited from earlier work
On the set-up of data set [1]: method as in 10 sources, ref 51 = [51]; doi:10.1016/j.jff.2015.04.042; 51. Cai L. Wu X. Zhang Y. Li X. Ma S. Li J. Purification and characterization of three antioxidant peptides from protein hydrolysate of grass carp ( Ctenopharyngodon idella ) skin J. Funct. Foods 2015 ||| ref 42 = [42]; PMID 35621976; doi:10.3390/md20050325; 42. Sheng Y. Qiu Y.T. Wang Y.M. Chi C.F. Wang B. Novel antioxidant collagen peptides of Siberian sturgeon ( Acipenser baerii ) cartilages: The preparation, characterization, and cytoprotection of H 2 ||| ref 24 = [24]; PMID 35127795; doi:10.3389/fnut.2021.813780; 24. Wang J. Wang Y.M. Li L.Y. Chi C.F. Wang B. Twelve antioxidant peptides from protein hydrolysate of Skipjack tuna ( Katsuwonus pelamis ) roe prepared by flavourzyme: Purification, sequence identifi ||| ref 48 = [48]; PMID 31035632; doi:10.3390/md17050251; 48. Yang X.R. Qiu Y.T. Zhao Y.Q. Chi C.F. Wang B. Purification and characterization of antioxidant peptides derived from protein hydrolysate of the marine bivalve mollusk Tergillarca granosa Mar Drugs ||| ref 43 = [43]; doi:10.1016/j.foodres.2010.02.009; 43. You L. Zhao M. Regenstein J.M. Ren J. Purification and identification of antioxidant peptides from loach ( Misgurnus anguillicaudatus ) protein hydrolysate by consecutive chromatography and electr ||| ...

Details of data set [2]: method as in 10 sources, ref 24 = [24]; PMID 35127795; doi:10.3389/fnut.2021.813780; 24. Wang J. Wang Y.M. Li L.Y. Chi C.F. Wang B. Twelve antioxidant peptides from protein hydrolysate of Skipjack tuna ( Katsuwonus pelamis ) roe prepared by flavourzyme: Purification, sequence identifi ||| ref 55 = [55]; doi:10.1016/j.jff.2016.06.008; 55. Pan X. Zhao Y.Q. Hu F.Y. Wang B. Preparation and identification of antioxidant peptides from protein hydrolysate of skate (Raja porosa) cartilage J. Funct. Foods 2016 25 220 230 10.1016/j.jff.2016 ||| ref 48 = [48]; PMID 31035632; doi:10.3390/md17050251; 48. Yang X.R. Qiu Y.T. Zhao Y.Q. Chi C.F. Wang B. Purification and characterization of antioxidant peptides derived from protein hydrolysate of the marine bivalve mollusk Tergillarca granosa Mar Drugs ||| ref 15 = [15]; doi:10.1016/j.jff.2018.06.014; 15. Zhao W.H. Luo Q.B. Pan X. Chi C.F. Sun K.L. Wang B. Preparation, identification, and activity evaluation of ten antioxidant peptides from protein hydrolysate of swim bladders of miiuy croaker ( Mi ||| ref 47 = [47]; PMID 35531284; doi:10.3389/fmicb.2022.791248; 47. Sun K. Gao M. Wang Y.Z. Li X.R. Wang P. Wang B. Antioxidant peptides from protein hydrolysate of marine red algae Eucheuma cottonii : Preparation, identification, and cytoprotective mechanisms on ||| ...

On the set-up of data set [3]: method as in 10 sources, ref 24 = [24]; PMID 35127795; doi:10.3389/fnut.2021.813780; 24. Wang J. Wang Y.M. Li L.Y. Chi C.F. Wang B. Twelve antioxidant peptides from protein hydrolysate of Skipjack tuna ( Katsuwonus pelamis ) roe prepared by flavourzyme: Purification, sequence identifi ||| ref 43 = [43]; doi:10.1016/j.foodres.2010.02.009; 43. You L. Zhao M. Regenstein J.M. Ren J. Purification and identification of antioxidant peptides from loach ( Misgurnus anguillicaudatus ) protein hydrolysate by consecutive chromatography and electr ||| ref 44 = [44]; doi:10.1016/j.jff.2015.03.045; 44. Chi C.F. Hu F.Y. Wang B. Li T. Ding G.F. Antioxidant and anticancer peptides from protein hydrolysate of blood clam ( Tegillarca granosa ) muscle J. Funct. Foods 2015 15 301 313 10.1016/j.jff.2015 ||| ref 42 = [42]; PMID 35621976; doi:10.3390/md20050325; 42. Sheng Y. Qiu Y.T. Wang Y.M. Chi C.F. Wang B. Novel antioxidant collagen peptides of Siberian sturgeon ( Acipenser baerii ) cartilages: The preparation, characterization, and cytoprotection of H 2 ||| ref 45 = [45]; PMID 23411302; doi:10.1016/j.foodchem.2012.12.002; 45. Wang B. Li L. Chi C.F. Ma J.H. Luo H.Y. Xu Y.F. Purification and Characterization of a novel antioxidant peptide derived from blue mussel ( Mytilus edulis ) protein hydrolysate Food Chem. 2013 138 ||| ...

Consider “EYEA [literature antioxidant peptide from Antarctic krill]”, for which the “EC50 HO·” value in data set [1] was 946 µg/mL. Besides, in data set [2], the “EC50 O2^−·” value was 793 µg/mL.

Take “FIMGPY [literature antioxidant peptide from skate cartilages]”: the “EC50 O2^−·” value in data set [2] is 1610 µg/mL.

As to “VPDDD [literature antioxidant peptide from Miichthys miiuy swim bladders]”, in data set [2], the “EC50 O2^−·” value is 4110 µg/mL.

As for “QAEP [literature antioxidant peptide from tuna roes]”, in data set [2], the “EC50 O2^−·” value was 2916 µg/mL.

As to “TTANIEDRR [literature antioxidant peptide from salmon pectoral fin]”, the “EC50 DPPH·” value in data set [3] is 2500 µg/mL.

For “SLPY [literature antioxidant peptide from Antarctic krill]”, the “EC50 HO·” value in data set [1] was 826 µg/mL.

“EGPFGPEG [literature antioxidant peptide from redlip croaker scales]”: the “EC50 O2^−·” value in data set [2] was 470 µg/mL. The “EC50 DPPH·” value in data set [3] was 370 µg/mL.

Regarding “PYGAKG [literature antioxidant peptide from S. niphonius skins]”, the “EC50 O2^−·” value in data set [2] was 800 µg/mL.

For “YPPAK [literature antioxidant peptide from Mytilus edulis]”, in data set [1], the “EC50 HO·” value was 228 µg/mL. Besides, the “EC50 O2^−·” value in data set [2] is 72 µg/mL. Moreover, the “EC50 DPPH·” value in data set [3] was 2620 µg/mL.

Turning to “EPLSD [literature antioxidant peptide from blood cockle]”, the “EC50 O2^−·” value in data set [2] is 2040 µg/mL.

Consider “GFIGPTE [literature antioxidant peptide from redlip croaker scales]”, for which the “EC50 O2^−·” value in data set [2] was 740 µg/mL. The “EC50 DPPH·” value in data set [3] is 450 µg/mL.

On to “NGLEGLK [literature antioxidant peptide from giant squid]”, for which the “EC50 O2^−·” value in data set [2] was 420 µg/mL.

As for “GFYAA [literature antioxidant peptide from Miichthys miiuy swim bladders]”, the “EC50 O2^−·” value in data set [2] is 3030 µg/mL.

On to “NADFGLNGLEGLA [literature antioxidant peptide from giant squid]”, for which, in data set [1], the “EC50 HO·” value is 612 µg/mL.

“PSYV [literature antioxidant peptide from pond loach meat]”: in data set [1], the “EC50 HO·” value was 2640 µg/mL. In data set [3], the “EC50 DPPH·” value is 2640 µg/mL.

“LKQELEDLLEKQE [literature antioxidant peptide from Pacific oyster]”: the “EC50 HO·” value in data set [1] was 46 µg/mL.

Consider “QDHKA [literature antioxidant peptide from tuna milts]”, for which the “EC50 HO·” value in data set [1] was 536 µg/mL.

With “IELFPGLP [literature antioxidant peptide from Siberian sturgeon cartilages]”, the “EC50 HO·” value in data set [1] was 1630 µg/mL. The “EC50 DPPH·” value in data set [3] was 1380 µg/mL.

Take “YSKT [literature antioxidant peptide from Eucheuma cottonii]”: the “EC50 DPPH·” value in data set [3] is 1710 µg/mL.

Take “FYKA [literature antioxidant peptide from Eucheuma cottonii]”: the “EC50 O2^−·” value in data set [2] is 1910 µg/mL. Besides, in data set [3], the “EC50 DPPH·” value was 2560 µg/mL.

In the case of “WLDPDG [literature antioxidant peptide from T. granosa]”, in data set [1], the “EC50 HO·” value was 1540 µg/mL.

For “GPEGPMGLE [literature antioxidant peptide from redlip croaker scales]”, in data set [1], the “EC50 HO·” value was 450 µg/mL. The “EC50 O2^−·” value in data set [2] was 620 µg/mL. In addition, the “EC50 DPPH·” value in data set [3] is 590 µg/mL.

For the substance “YAVT [literature antioxidant peptide from Eucheuma cottonii]”, in data set [2], the “EC50 O2^−·” value is 560 µg/mL.

On to “VGGRP [literature antioxidant peptide from grass carp skin]”, for which the “EC50 HO·” value in data set [1] was 2060 µg/mL.
